Experimental data reported in patent publication US20200255492A1, “LEPTIN PEPTIDES AND THEIR USE FOR TREATING NEUROLOGICAL DISORDERS” (UNIVERSITY OF DUNDEE, priority 2017, published 2020).

Legend:
SH-SY5Y = test: Cell survival with Aβ1-42 and leptin (22-56) (data not shown); assay type: cell-based, human
Description: The human neuroblastoma cell line, SH-SY5Y (ECACC, UK) was maintained in Dulbecco's Modified Eagle Medium supplemented with glucose ([…]) and 10% (v/v) cosmic calf serum (Fisher Scientific, UK) at 37° C. in a humidified atmosphere of 5% CO2, 95% air and allowed to reach 70-80% confluence before seeding. Cells (passage 10-18) were plated at 10 000 cells per well in 96 well tissue culture plates (Nunc, VWR, UK) and at a density of 2×10^5 cells in 35 mm dishes for protein extraction. To induce differentiation, cells were cultured in DMEM supplemented with glucose ([…]), 1% (v/v) cosmic calf serum and 10 μM retinoic acid for 5 days. Thereafter they were incubated in DMEM supplemented with glucose ([…]), serum replacement 2 (2%; Sigma, UK) and 18 μM 5-fluorodeoxyuridine to inhibit proliferation of undifferentiated cells. […]
The concentration of lactate dehydrogenase (LDH) in the culture medium or the mitochondrial activity within cells was used to monitor the level of cell death, as previously (Oldreive and Doherty 2010). […] Plates were washed 5-10 times in dH2O and cells solubilised in 100 μl dimethyl sulfoxide (DMSO) before reading the absorbance on a Biohit BP100 plate reader. For all assays, data is expressed as percentage relative to control, untreated wells to normalize for differences in plating density between individual experiments. […]

acute hippocampal slices = test: HFS-induced LTP with leptin hexamers; assay type: cell-based, Sprague Dawley rats; details: 10 nM for 50 min prior to HFS; control LTP 117±10.8% / 125±4.9%
Description: Parasagittal hippocampal slices (300 μm) were prepared from either P13-21 or 12-24-week-old male Sprague Dawley rats as previously (Moult et al. 2010). Brains were rapidly removed and placed in ice-cold artificial CSF (aCSF; bubbled with 95% O2 and 5% CO2) containing the following (in mm): 124 NaCl, 3 KCl, 26 NaHCO3, 1.25 NaH2PO4, 2 CaCl2, 1 MgSO4, and 10 d-glucose. Once prepared, parasagittal slices were allowed to recover at room temperature in oxygenated aCSF for 1 h before use. Slices were transferred to a submerged chamber maintained at room temperature and perfused with artificial cerebrospinal fluid at 2 ml min^−1. Standard extracellular recordings were used to monitor evoked field excitatory postsynaptic potentials (fEPSP) from stratum radiatum. The Schaffer collateral-commissural pathway was stimulated (constant voltage; 0.1 ms) at 0.033 Hz, using a stimulus intensity that evoked a peak amplitude ˜50% of the maximum. Synaptic potentials were low pass filtered at 2 kHz and digitally sampled at 10 kHz. The fEPSP slope was measured and expressed relative to baseline. Synaptic records are the average of 4 consecutive responses and stimulus artefacts are blanked for clarity. Recordings were made using an Axopatch 200B amplifier and analyzed using LTP v2.4 software. In synaptic plasticity studies, the degree of potentiation was calculated 30-35 min after HFS and expressed as a percentage of baseline±standard error of mean (SEM).
To determine if the leptin hexamers influence the magnitude of activity-dependent synaptic plasticity, standard extracellular recording techniques were used to assess the effects of leptin (116-121, 117-122, 118-123, 120-125, 124-129 and 125-130) on the magnitude of LTP induced by high frequency stimulation (100 Hz, 1 s) in acute hippocampal slices. […] In parallel studies, application of leptin (118-123; 158±3.8%; n=7; p<0.05; FIG. 8) or leptin (120-125; to 163±8.8% of baseline; n=5; p<0.05) also facilitated LTP, compared to control LTP (FIG. 8).

[1] = system: leptin-deficient ob/ob mice; details: cited from earlier work
[2] = system: differentiated human neural cells (SH-SY5Y); test: Crystal violet assay of cell number; assay type: cell-based
Description: The human neuroblastoma cell line, SH-SY5Y (ECACC, UK) was maintained in Dulbecco's Modified Eagle Medium supplemented with glucose ([…]) and 10% (v/v) cosmic calf serum (Fisher Scientific, UK) at 37° C. in a humidified atmosphere of 5% CO2, 95% air and allowed to reach 70-80% confluence before seeding. Cells (passage 10-18) were plated at 10 000 cells per well in 96 well tissue culture plates (Nunc, VWR, UK) and at a density of 2×10^5 cells in 35 mm dishes for protein extraction. To induce differentiation, cells were cultured in DMEM supplemented with glucose ([…]), 1% (v/v) cosmic calf serum and 10 μM retinoic acid for 5 days. Thereafter they were incubated in DMEM supplemented with glucose ([…]), serum replacement 2 (2%; Sigma, UK) and 18 μM 5-fluorodeoxyuridine to inhibit proliferation of undifferentiated cells. The 50% of the medium was changed every 2-3 days and pharmacological treatment was carried out 7 days after switching to this medium. Reagents used were (from Sigma UK unless stated) 0.1-10 nM human leptin and leptin (116-130); 0.1-10 nM leptin (22-56; Bachem; Switzerland); 10 nM leptin (116-121) leptin (117-122), leptin (124-129) or leptin (125-130; all Severn Biotech, UK); 5 μM copper chloride; […], 5 μM WP1066 or 50 nM wortmannin. All treatments were added to the culture at the same time and survival assays were carried out after 96 h treatment. Protein samples for signaling ELISA were extracted 3 h after exposure to the relevant reagents and for biomarker expression after 72 hours.
The concentration of lactate dehydrogenase (LDH) in the culture medium or the mitochondrial activity within cells was used to monitor the level of cell death, as previously (Oldreive and Doherty 2010). In certain experiments, a Crystal violet assay was used to assess total cell number. Cells were fixed in neutral buffered formalin and washed 3 times in PBS prior to staining with 0.01% crystal violet acetate for 5 min. Plates were washed 5-10 times in dH2O and cells solubilised in 100 μl dimethyl sulfoxide (DMSO) before reading the absorbance on a Biohit BP100 plate reader. For all assays, data is expressed as percentage relative to control, untreated wells to normalize for differences in plating density between individual experiments.
In parallel studies a crystal violet assay was used to verify these findings by assessing cell number. In CuCl2-treated cells, there was a concentration-dependent increase in the survival of cells treated with either leptin or leptin (116-130). […] Treatment with leptin (116-130) also mirrored leptin action by increasing cell viability in Aβ1-42-treated cultures as cell number increased by 19.2±15% and 44.3±7.5% after treatment with 0.1 nM or 10 nM leptin, respectively (n=5 for each; P<0.01).

Substance	magnitude of LTP after HFS (100 Hz, 1 s) (acute hippocampal slices)	body weight [1]	food intake [1]	increase in cell number, Aβ1-42-treated cultures ([2]; 0.1 nM)	increase in cell number, CuCl2-treated cells ([2]; 0.1 nM)	increase in cell number, Aβ1-42-treated cultures ([2]; 10 nM)	increase in cell number, CuCl2-treated cells ([2]; 10 nM)	also measured
Aβ1-42: amyloid beta 1-42, toxin used in the AD models [reference compound]								survival following Aβ1-42 treatment (SH-SY5Y; Aβ1-42 alone): 41.2±5.8 % survival
CSLPQT (listed as Mus musculus) [leptin (117-122)]	191±19.7 % of baseline							
SCSLPQ (listed as Mus musculus) [leptin (116-121)]	162±6.3 % of baseline	reduced food intake and body weight	reduced food intake and body weight					
SCSLPQTSGLQKPES (listed as Mus musculus) [leptin (116-130)]		reduced food intake and body weight	reduced food intake and body weight	29.4±9.4%	27.8±10.6%	51.8±6.3%	39.9±13.5%	
leptin (22-56): leptin fragment amino acids 22-56 (Bachem), comparison fragment (VPIQKVQDDTKTLIKTIVTRINDISHTQSVSSKQK; UniProt P41159 22-56, looked up, fragment) [reference compound]								survival in Aβ1-42 treated cells (SH-SY5Y; Aβ1-42 with 10 nM leptin (22-56)): 48.6±9.3%
leptin: the metabolic hormone leptin, whole (full length) leptin molecule; human leptin from Sigma in SH-SY5Y work				19.2±15%	16.7±3.4%	44.3±7.5%	43.4±9.2%	
